In US11571485B2, “Peptides and antibodies for detecting changes in alzheimer's disease brain and methods of use thereof” (Sanford Burnham Prebys Medical Discovery Institute, priority 2016, dated 2023):
Entries after “also recorded” stand apart in the source; their conditions may differ.

Experiments:
[1] = tested on: hippocampus of hAPP-J20 AD and wild-type mice; test: In vivo CX7C T7 phage library screen, sequencing of phage recovered from hippocampus; set-up: species or system mouse; settings: 9-month AD mouse vs normal mouse hippocampus
Procedure: In vivo phage screening was conducted using a T7 phage library expressing random peptides with the composition of CXnC (C=cysteine; X=any amino acid; n=7). The mouse model used for this screening is the hAPP-J20 that expresses amyloid precursor protein (APP) with both the Swedish and Indiana mutations (Murrell et al., Science 254, 97-99. (1991); Mullan et al., Nat. Genet. 1, 345-347. (1992)). Peptides homing to the hippocampus of these mice was the focus because the hippocampal region is where the AB-related lesions and damage are most prevalent early on in the disease.
A CX7C phage library was intravenously injected into 9 month-old AD and wild-type (WT) littermate mice, and allowed to circulate for 30 min, after which mice were perfused with saline, brains were collected, and the hippocampal region was dissected and subjected to phage titration and high throughput sequencing of the phage inserts. A surprise result was that the number of phage recovered from the AD hippocampus samples was much higher than the number recovered from a similar screen on normal littermates of the AD mice (FIG. 1A). […] BBB leakage has also been reported in AD patients.
Parallel phage library screens were performed on a normal mouse and a 9-month old AD transgenic mouse (J20 hAPP tg mouse line, which expresses transgenic amyloid precursor protein with two disease-related mutations). The library was intravenously injected into anesthetized mice and the hippocampal area of the brain was collected 30 min after intravenous injection of the library, phage was isolated from the tissue samples and subjected to high throughput sequencing of the peptide-encoding inserts in the phage DNA. Table 1 list most abundantly represented peptide from the two kinds of brains, and all peptides with significant representation in the AD brain and absent or nearly absent in the normal brain are listed in Table 2. Two peptides, CASPRLSKC (SEQ ID NO: 3) and CESPLLSEC (SEQ ID NO: 11), from among the highest scoring ones were subjected to detailed studies as described below.
hAPP-J20 mice were intravenously injected with 1e10 pfu of a CX7C (wherein X is any amino acid) naïve phage library, in 100 μL of PBS. The library was allowed to circulate for 30 minutes, after which mice were anesthetized with 2.5% avertin and perfused with PBS intracardially. The brain was removed and the hippocampus was extracted and homogenized in LB-NP 40 (1%) and phage was processed as described (Teesalu et al., Methods Enzymol 503, 35-56 (2012)). The phages in the lysate were rescued by amplification in E. coli and peptide-encoding portion of the phage genome was sequenced using Ion Torrent high throughput sequencing.

[2] = tested on: hAPP-J20 mouse brain sections; test: Tissue section overlay of FAM-labeled peptides on mouse brain sections; format: binding; settings: hAPP-J20 vs age-matched wild-type mice, hippocampal region
Procedure: (§1) PFA fixed sections were incubated in PBS for 10 minutes, followed by PBS-Triton-x-100 (0.2%) for 10 minutes. Sections were rinsed with PBST, mounted in a slide holder, and subsequently washed with PBS-T during 12 minutes. Slides were blocked with blocking buffer for 60 minutes at room temperature. Then, peptides were incubated at a concentration of 10 μg/mL dissolved in concentrated blocking buffer, for three hours at room temperature. Sections were then washed with three 4-minute washes of PBS-T, and subsequently fixed with PFA for 10 minutes, followed by three 3-minute washes with PBS-T. Sections were then incubated with primary antibody at 1/200 in diluted blocking buffer overnight at 4° C. Later, sections were washed with three 4-minute washes with PBS-T. Slides were then incubated with secondary antibody at 1/200 dilution in diluted blocking buffer for 30 minutes at room temperature, followed by three 4-minute washes of PBS-T. Sections were then counterstained with DAPI for 5 minutes, washed with PBS-T and mounted.

[3] = tested on: human iPS cell-derived endothelial cells (ECs) from an AD patient; test: AgNP binding to hiPSC-derived brain endothelial cells; format: cell-based
Description: Human iPS cell-derived from an AD patient and from a normal individual were differentiated into endothelial cells and the cultured cells were used in an overlay assay with DAG-coated and control AgNP.
The details of human induced pluripotent stem cells (hiPSCs) derived from Alzheimer disease patients with APP duplication, and non-demented control individuals, are described previously (Israel et al., Nature 482, 216-220 (2012)). These hiPSCs were extensively characterized and have been established as an excellent human model for AD. An additional AD hiPSC line generated from dermal fibroblasts from an individual harboring a Presenilinl (PSEN1) mutation (Coriell Institute, Cat #AG06840) was used to further validate the results from the APP lines. hiPSCs were routinely maintained on mouse embryonic fibroblast as described before (Lin et al., Nat Methods 6, 805-808 (2009); Talantova et al., Proc Natl Acad Sci USA 110, E2518-2527 (2013)). Brain microvascular endothelial cells differentiation of hiPSCs was performed using a previously described protocol (Lippmann et al., Nature biotechnology 30, 783-791 (2012), with minor modifications. Briefly, feeder-free cultures of hiPSCs were allowed to spontaneously differentiate in the absence of bFGF for 5-7 days, and then transferred to Endothelial cell (EC) medium composed of human Endothelial Serum-Free Medium™ (Invitrogen) supplemented with 20 ng/ml bFGF and 1% platelet-poor plasma-derived bovine serum (PDS; Biomedical Technologies). After 1-2 days the cells were dissociated with dispase (2 mg/ml) and were plated on 12 well plates coated with a mixture of collagen IV (400 μg/ml) and fibronectin (100 μg/ml). Cells were then cultured in EC medium until they reached confluence, after which they were split and expanded to near 100% purity. BBB-type EC identity was confirmed by flow cytometry or double immunoreactivity to the hallmark efflux transporter p-glycoprotein and other EC markers (CD31, GLUT-1, PECAM, Occludin, and Claudin-5). Furthermore, the capability of these cells to make functional tight junctions and polarized efflux activity was validated using a dual chamber efflux transport assay as described before.
Cell binding experiments on U251 cells and hiPSCs were with done using peptide conjugated AgNP. U251 cells were cultured in a 96-well plate. The cells were blocked with 200 μl of 10% FCS in HBSS (Hanks' Balanced Salt Solution from Gibco) for 30 min at 37° C. Following that, DAG-AgNPs (0.5 nM concentration diluted in HBSS) alone or in the presence of free non-labeled peptide (200 μM) were incubated on the cells for 1 hour at 37° C. After washing the unbound AgNP with HBSS three times, the plates were imaged with fluorescent microscopy by looking at intrinsic emission from the FAM tag on the peptide. hiPSCs were cultured in 48 well plate and similar protocol as described above was followed, with the exception that AgNP concentration for incubation was kept at 0.15 nM. Nanoparticle binding was quantified from fluorescence micrographs using ImageJ™ software.

human AD brain sections = test: Ex vivo overlay binding to human AD brain sections
Procedure: as §1
Postmortem human brain samples were obtained from the New York Brain Bank at Columbia University, New York. The patient was a person with a diagnosis of AD neuropathologic changes ([A3, B3, C3]). The normal brain tissue was obtained from BioChain Institute Inc. (Newark, Calif.). The donor was a person without any neurologic diagnosis on detailed neuropathologic evaluation. The Parkinson's disease brain tissue was obtained from UCSD Pathology bank. Frozen brain tissue was sectioned for immunohistochemistry and ex vivo overlay binding with FAM-peptides.

CDAGRKQKC
Representation in sequenced phage pools, AD versus normal brain [1]: dominated | Ex vivo peptide binding to brain sections [2]: bound to a much greater degree in the hippocampal region of hAPP-J20 mice than to age-matched wild-type mice; also recorded: far stronger than DAG binding to WT brain | Binding to AD patient iPS cell-derived endothelial cells ([3]; AD patient vs normal donor cells): recognizes endothelial cells differentiated from AD iPS cells and not cells prepared similarly from a control individual | Binding to hiPSC-derived BMECs from non-demented individual ([3]; control cells): did not bind to hiPSC-derived BMECs from a non-demented individual | Binding to human AD brain sections (human AD brain sections; overlay): bound strongly to the hippocampal region | Inhibition of binding to human AD sections by anti-CTGF antibody (human AD brain sections; pre-incubation with anti-CTGF antibody): partially inhibited by pre-incubation with anti-CTGF antibody
